Test results published in patent publication US20240226049A1, “METHODS OF TREATMENT USING BEMPEDOIC ACID” (Esperion Therapeutics, Inc., priority 2023, published 2024).

Test system: statin-intolerant patients with or at high risk of CVD
Assay type: in vivo
From the text: The CLEAR OUTCOMES trial was a randomized, placebo-controlled, double-blind trial that enrolled patients at 1250 sites in 32 countries. An independent Data Monitoring Committee reviewed safety and efficacy data during the trial.
Patients 18 to 85 years of age were eligible for enrollment if they met either of two criteria for increased cardiovascular risk, a prior cardiovascular event (secondary prevention) or clinical features that placed them at high risk for a cardiovascular event (primary prevention). (Nicholls S. Lincoff A M, Bays H E, et al. Rationale and design of the CLEAR-outcomes trial: Evaluating the effect of bempedoic acid on cardiovascular events in patients with statin intolerance. Am Heart J. 2021 May; 235:104-112) All patients provided written informed consent. Patients had to report statin intolerance due to an adverse effect that started or increased during statin therapy and resolved or improved after statin therapy was discontinued. Patients could be enrolled if they tolerated a very low average daily statin dose (e.g., an average daily dose of rosuvastatin <5 mg, atorvastatin <10 mg, simvastatin <10 mg, lovastatin <20 mg, pravastatin <40 mg, fluvastatin <40 mg, or pitavastatin <2 mg). Other lipid-lowering therapies were permitted, including ezetimibe, niacin, bile acid resins, fibrates, and/or proprotein convertase subtilisin kexin type 9 (PCSK9) inhibitors. Full inclusion and exclusion criteria are provided in Nicholls et al. (Am Heart J. 2021).
Eligible patients entered a 4-week run-in period during which patients were treated with single-blind placebo. If patients were intolerant to placebo treatment or if adherence was <80% by tablet count, they were not eligible for randomization. Patients who successfully completed the run-in period were randomly assigned in a 1:1 ratio to receive bempedoic acid at an oral dose of 180 mg or matching placebo, administered daily. Beginning 6 months after enrollment, the central laboratory notified the investigator if the patient's LDL-cholesterol level was ≥25% higher than baseline. These patients were counseled on healthy dietary guidelines and reminded to take all lipid-regulating medications. If repeat testing confirmed that LDL-cholesterol value met the threshold criteria, the provider could adjust the lipid-lowering treatment regimen per standard of care and local guidelines.
The primary end point was the first occurrence of a composite of death from cardiovascular causes, nonfatal myocardial infarction (MI), nonfatal stroke, or coronary revascularization. The first key secondary end point was time to the first occurrence of the composite of cardiovascular death, nonfatal stroke, or MI. Further key secondary end points included time to first occurrence of each of the following outcomes tested in hierarchical order, fatal or nonfatal MI, coronary revascularization, fatal or nonfatal stroke, death from cardiovascular causes, and all-cause mortality.
This was an event-driven trial designed to provide at least 90% power to detect a 15% relative risk reduction for the primary composite end point at an overall two-sided significance level of 0.05. The trial required a minimum of 1620 primary composite events with ≥24 months of follow-up for all patients and at least 810 first key secondary end points. The average treatment duration was estimated to be 42 months and a lost-to-follow-up rate of 1% per year. Assuming a 3.59% annual event rate in the placebo group, enrollment of 12,600 patients was required, subsequently amended to 14,000. There were no interim efficacy analyses. A hierarchical approach was prespecified to evaluate sequentially each of the six key secondary efficacy end points with statistical significance at each step required to test the next hypothesis, thereby preserving the study-wise Type I error rate at 5%. All analyses were based on the intent-to-treat principle. […]

[1] = full population, 180 mg oral daily, N = 6992

## CC(C)(CCCCCC(O)CCCCCC(C)(C)C(=O)O)C(=O)O [Bempedoic Acid, Bempedoic acid]
Compared with placebo, full population
  effect on other key secondary end points (time to first occurrence of stroke, death from cardiovascular causes, all-cause mortality): no significant effects
[1]
  3-component MACE, % of patients: (8.2) %
  Coronary revascularization, % of patients: (6.2) %
  Fatal and non-fatal MI, % of patients: (3.7) %
  Primary efficacy endpoint (MACE-4), % of patients: (11.7) %
human, in vivo
  New-onset type 2 diabetes mellitus, Hazard Ratio: 0.95
Vs placebo, 180 mg oral daily
  reduction in risk of non-fatal myocardial infarction: about 27%
Vs placebo, full population
  3-component MACE, Hazard Ratio: 0.85
  5 component MACE, Hazard Ratio: 0.86
  All-cause mortality, nonfatal MI, nonfatal stroke, or coronary revascularization, Hazard Ratio: 0.89
  Coronary revascularization, Hazard Ratio: 0.81
  Fatal and non-fatal MI, Hazard Ratio: 0.77
  Fatal and non-fatal stroke, Hazard Ratio: 0.85
  Fatal and nonfatal non-hemorrhagic stroke, Hazard Ratio: 0.78
  Hospitalization for unstable angina, Hazard Ratio: 0.66
  Non-fatal MI, Hazard Ratio: 0.73
  Non-fatal stroke, Hazard Ratio: 0.82
  Primary efficacy endpoint (MACE-4), Hazard Ratio: 0.87
